Assay results taken from PMC7433010, “Exploration of multi‐target effects of 3‐benzoyl‐5‐hydroxychromen‐2‐one in Alzheimer’s disease cell and mouse models” (Aging Cell, 2020).

Columns and labels:
ΔK280 TauRD‐DsRed = experiment: Western blot of soluble ΔK280 TauRD‐DsRed in SH‐SY5Y cells; assay type: cell-based, human; conditions: 1 µM, not significant
Procedure: To knock down CREB expression in ∆K280 TauRD-DsRed SH-SY5Y cells, lentiviral short hairpin RNA (shRNA) targeting CREB (TRCN0000226466), NRF2 (TRCN0000007558), and a negative control scrambled (TRC2.Void) were obtained from National RNAi Core Facility, IMB/GRC, Academia Sinica, Taipei, Taiwan. On day 1, cells were plated on 6-well plates (for protein analysis) or 24-well plates (for neurite outgrowth analysis) in the presence of retinoic acid as described. On the second day, the cells were infected with lentivirus (multiplicity of infection: 3) in medium with polybrene (8 µg/mL; Sigma-Aldrich). […] On day 9, the cells were collected for NRF2, CREB, pCREB, and cleaved CASP3 protein analysis or analyzed for neurite outgrowth as described.
Total proteins from ∆K280 TauRD-DsRed SH-SY5Y cells were obtained using a RIPA buffer containing 50 mM Tris-HCl (pH8.0), 150 mM NaCl, 2 mM EDTA (pH8.0), 50 mM NaF, 0.1% SDS, 0.5% sodium deoxycholate, 1% NP40, and a protease inhibitor cocktail (Sigma-Aldrich). […] Protein concentrations were determined using a protein assay kit (Bio-Rad, Hercules, CA, USA), with albumin as a standard. […] Subsequently, immune complexes were detected using a horseradish peroxidase-conjugated goat anti-mouse or goat anti-rabbit IgG antibody (1:5000; GeneTex, Irvive, CA, USA) and a chemiluminescent substrate (Millipore).

[1] = tested on: STZ‐induced hyperglycemic 3 × Tg‐AD mice; experiment: Y‐maze task in STZ‐treated 3 × Tg‐AD mice; assay type: in vivo, mouse; conditions: day 26; 40 mg/kg i.p.; STZ 53%, – STZ 63%
Procedure: Mice harboring APPSwe, PS1M146V, and […] transgenes (3×Tg-AD) (Oddo et al., 2003) were purchased from the Jackson Laboratory (004807; Bar Harbor, ME, USA). Six-month-old male homozygous 3×Tg-AD mice were group housed at 20–25°C and 60% relative humidity under a daily 12-h light/12-h dark cycle, with assess to food and water ad libitum. Mice were randomly divided into 3 groups: – streptozocin (STZ), STZ, and STZ/LM-031 (n = 10 per group). STZ-induced hyperglycemia was used to accelerate the development of AD phenotype (Chen et al., 2014). […] Mouse body weight was measured and blood glucose level was measured on days 1, 8, 15, 22, and 29 using a blood glucose meter (Bioland Technology, Taipei, Taiwan). […]
A Y-maze composed of three equally spaced arms (40 cm long, 30 cm high, and 15 cm wide) was used to assess spontaneous alternation behavior. On day 26, each mouse was placed in one of the arm compartments and was allowed to move freely for 8 min; the number of entries and the sequence of arms entered were recorded. Spatial working memory was assessed through the spontaneous alternation performances of a Y-maze exploration as described (Maurice et al., 1994). […] The percent of spontaneous alternation behavior was calculated as the ratio of actual alternation to possible alternations (total arm entries – 2) × 100.

BDNF = experiment: Western blot of BDNF in ∆K280 TauRD‐DsRed SH‐SY5Y cells; assay type: cell-based, human; conditions: 1 µM, uninduced 100%
Procedure: Total proteins from ∆K280 TauRD-DsRed SH-SY5Y cells were obtained using a RIPA buffer containing 50 mM Tris-HCl (pH8.0), 150 mM NaCl, 2 mM EDTA (pH8.0), 50 mM NaF, 0.1% SDS, 0.5% sodium deoxycholate, 1% NP40, and a protease inhibitor cocktail (Sigma-Aldrich). After sonication and sitting on ice for 20 min, the lysates were centrifuged at 14,000 × g for 30 min at 4°C. Protein concentrations were determined using a protein assay kit (Bio-Rad, Hercules, CA, USA), with albumin as a standard. Total proteins (20 µg) were electrophoresed on 10% or 12% SDS-polyacrylamide gel and transferred onto polyvinylidene difluoride (PVDF) membranes (Sigma-Aldrich) through reverse electrophoresis. […] Subsequently, immune complexes were detected using a horseradish peroxidase-conjugated goat anti-mouse or goat anti-rabbit IgG antibody (1:5000; GeneTex, Irvive, CA, USA) and a chemiluminescent substrate (Millipore).

[2] = Body weight in STZ‐treated 3 × Tg‐AD mice; assay type: in vivo, mouse; conditions: 40 mg/kg i.p.; among the three groups
Procedure: For the in vivo LM‐031 treatment experiments, 6‐month‐old male homozygous 3 × Tg‐AD mice (n = 10 per group) were used. Mice were randomly divided into three groups: – streptozocin (STZ), STZ, and STZ/LM‐031. STZ‐induced hyperglycemia was used to accelerate the development of AD phenotype. Mouse body weight and blood glucose level were measured on days 1, 8, 15, 22, and 29. LM‐031 (40 mg/kg) or vehicle (DMSO:Cremophor EL:0.9% saline = 1:2:7) was intraperitoneally injected every day for 22 days from days 15 to 36. All animal procedures were ethically approved by the Institutional Animal Care and Use Committee of National Taiwan Normal University, Taipei, Taiwan (Permit Number: 103002) and were conducted in compliance with the ARRIVE (Animal Research: Reporting In Vivo Experiments) guidelines. Open‐field task, Y‐maze task, Morris water maze task, and immunohistochemistry and image analysis were performed.
Mice harboring APPSwe, PS1M146V, and […] transgenes (3×Tg-AD) (Oddo et al., 2003) were purchased from the Jackson Laboratory (004807; Bar Harbor, ME, USA). […] Mouse body weight was measured and blood glucose level was measured on days 1, 8, 15, 22, and 29 using a blood glucose meter (Bioland Technology, Taipei, Taiwan). […]

## O=C(c1ccccc1)c1cc2c(O)cccc2oc1=O [LM‐031, 3‐benzoyl‐5‐hydroxychromen‐2‐one]
ΔK280 TauRD‐DsRed; CREB‐specific shRNA‐infected cells, untreated 86%
  soluble TauRD‐DsRed protein level: 104%
ΔK280 TauRD‐DsRed; NRF2‐specific shRNA‐infected cells, untreated 82%
  soluble TauRD‐DsRed protein level: 103%
[1]
  Y‐maze alternation rate: 72%
BDNF; induced untreated 82%
  BDNF protein level, 14 kDa: 155%
BDNF; induced untreated 83%
  BDNF protein level, 32 kDa: 101%
[2]
  body weight: No significant change
